According to patent publication US9290496B2, “Purine derivatives” (PFIZER INC., priority 2013, dated 2016):
pIC50: −log10 of the molar value. Where two headings read alike, the source gives them in different places.

How the values were obtained:
Assay type in all cases: cell-based
[1] = target: T1, EGFR L858R+T790M, endogenous (NCI-H1975) (Homo sapiens, UniProt P00533, L858R/T790M); assay: pEGFR Y1068 ELISA assay, NCI-H1975 cells; conditions: inhibition of phosphorylation of EGFR at Tyr1068; NCI-H1975 NSCLC cells; 2 hr compound incubation
T1 construct: NCI-H1975 (EGFR L858R+T790M, endogenous); host or cells: NCI-H1975
T1 sequence (P00533 25-1210 T790M/L858R): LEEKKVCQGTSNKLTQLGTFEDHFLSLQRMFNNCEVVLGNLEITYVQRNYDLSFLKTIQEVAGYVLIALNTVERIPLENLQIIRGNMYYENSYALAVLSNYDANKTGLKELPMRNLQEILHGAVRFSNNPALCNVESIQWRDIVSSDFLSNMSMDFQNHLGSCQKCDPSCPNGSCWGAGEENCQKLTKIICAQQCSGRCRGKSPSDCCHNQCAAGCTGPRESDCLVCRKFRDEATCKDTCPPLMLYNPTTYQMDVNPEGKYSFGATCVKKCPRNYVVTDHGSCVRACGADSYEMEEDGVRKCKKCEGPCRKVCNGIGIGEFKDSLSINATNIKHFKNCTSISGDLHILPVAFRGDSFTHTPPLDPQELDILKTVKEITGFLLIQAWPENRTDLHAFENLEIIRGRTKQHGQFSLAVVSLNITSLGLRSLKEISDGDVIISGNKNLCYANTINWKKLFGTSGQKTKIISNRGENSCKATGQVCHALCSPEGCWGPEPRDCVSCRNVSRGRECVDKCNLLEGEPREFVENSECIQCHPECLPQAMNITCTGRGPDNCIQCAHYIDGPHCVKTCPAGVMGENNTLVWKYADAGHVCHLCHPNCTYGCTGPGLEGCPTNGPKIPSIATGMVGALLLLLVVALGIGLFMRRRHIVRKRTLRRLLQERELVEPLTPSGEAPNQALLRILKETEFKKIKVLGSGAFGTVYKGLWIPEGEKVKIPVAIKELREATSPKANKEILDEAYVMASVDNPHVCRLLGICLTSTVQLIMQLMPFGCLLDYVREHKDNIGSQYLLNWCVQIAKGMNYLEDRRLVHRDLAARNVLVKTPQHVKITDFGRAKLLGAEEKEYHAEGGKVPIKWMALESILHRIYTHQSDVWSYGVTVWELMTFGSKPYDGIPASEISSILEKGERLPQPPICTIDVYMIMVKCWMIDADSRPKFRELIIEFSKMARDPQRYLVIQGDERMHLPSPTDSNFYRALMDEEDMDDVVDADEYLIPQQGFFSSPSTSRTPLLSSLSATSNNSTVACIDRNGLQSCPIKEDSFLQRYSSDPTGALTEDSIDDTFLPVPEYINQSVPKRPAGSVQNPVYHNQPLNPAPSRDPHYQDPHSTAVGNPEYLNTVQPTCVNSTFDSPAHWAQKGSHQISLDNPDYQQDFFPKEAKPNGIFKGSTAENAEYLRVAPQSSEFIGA

[2] = target: T2, EGFR del (PC9) (Homo sapiens, UniProt P00533, DEL746-750); assay: pEGFR Y1068 ELISA assay, PC9 cells; conditions: inhibition of phosphorylation of EGFR at Tyr1068; PC9 NSCLC cells; 2 hr compound incubation
T2 construct: detects endogenous levels of phospho-EGF Receptor (Tyr1068) protein; host or cells: PC9
T2 sequence (P00533 with tags, fused parts or gaps DEL746-750): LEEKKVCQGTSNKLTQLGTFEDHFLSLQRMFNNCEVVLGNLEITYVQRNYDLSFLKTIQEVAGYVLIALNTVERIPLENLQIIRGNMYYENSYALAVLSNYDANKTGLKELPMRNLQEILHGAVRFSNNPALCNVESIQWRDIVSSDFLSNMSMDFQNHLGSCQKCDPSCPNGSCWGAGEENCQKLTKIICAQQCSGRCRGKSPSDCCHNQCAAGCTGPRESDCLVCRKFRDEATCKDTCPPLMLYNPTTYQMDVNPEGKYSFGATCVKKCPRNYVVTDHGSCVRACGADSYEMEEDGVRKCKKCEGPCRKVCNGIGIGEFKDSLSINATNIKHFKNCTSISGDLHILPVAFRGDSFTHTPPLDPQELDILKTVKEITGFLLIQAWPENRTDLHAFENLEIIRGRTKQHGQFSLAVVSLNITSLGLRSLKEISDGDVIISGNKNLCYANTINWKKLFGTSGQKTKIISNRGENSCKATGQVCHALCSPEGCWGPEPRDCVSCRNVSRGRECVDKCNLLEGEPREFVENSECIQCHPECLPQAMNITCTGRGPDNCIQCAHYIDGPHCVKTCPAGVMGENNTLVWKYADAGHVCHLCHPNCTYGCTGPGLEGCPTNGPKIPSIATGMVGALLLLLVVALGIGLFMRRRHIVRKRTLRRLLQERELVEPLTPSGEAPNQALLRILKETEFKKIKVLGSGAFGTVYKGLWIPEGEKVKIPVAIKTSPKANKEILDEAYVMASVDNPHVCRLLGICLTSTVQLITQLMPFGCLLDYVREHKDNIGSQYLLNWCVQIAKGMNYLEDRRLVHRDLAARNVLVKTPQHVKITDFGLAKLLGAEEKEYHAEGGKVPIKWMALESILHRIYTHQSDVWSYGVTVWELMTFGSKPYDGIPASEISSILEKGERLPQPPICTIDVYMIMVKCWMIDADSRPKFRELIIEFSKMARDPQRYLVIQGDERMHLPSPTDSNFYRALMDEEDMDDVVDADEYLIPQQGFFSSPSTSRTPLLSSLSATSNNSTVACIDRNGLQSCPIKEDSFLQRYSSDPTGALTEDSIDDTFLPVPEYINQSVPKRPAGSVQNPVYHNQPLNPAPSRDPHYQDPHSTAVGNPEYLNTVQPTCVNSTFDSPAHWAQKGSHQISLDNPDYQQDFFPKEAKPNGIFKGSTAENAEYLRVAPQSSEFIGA
Procedure: (§1) The PathScan® Phospho-EGF Receptor (Tyr1068) Sandwich ELISA Kit is a solid phase sandwich enzyme-linked immunosorbent assay (ELISA) that detects endogenous levels of phospho-EGF Receptor (Tyr1068) protein. […] NCI-H3255 cells were licensed from NCI. […] All cells were cultured according to ATCC recommendations. A549, NCI-H1975, PC9, and NCI-H3255 cells were grown in RPMI media (Invitrogen, Carlsbad, Calif.) supplemented with 10% FBS (Sigma, St Louis, Mo.), and with 1% Penn/Strep (Invitrogen).
(§2) Each compound was prepared as a DMSO stock solution (10 mM). Compounds were tested in duplicate on each plate, with an 11-point serial dilution curve (1:3 dilution). Compound treatment (50 μL) was added from the compound dilution plate to the cell plate. […] Plates were then incubated for 2 hr at 37° C., 5% CO2. […] The wash was then flicked off and ice-cold lysis buffer was added to the cells (50 μL/well). The plate was shaken for 20-30 min at 4° C. to completely lyse the cells. Sample diluent (50 μL/well) was added to the ELISA plate, and the lysate (50 μL) was diluted into the sample diluent in each well of the ELISA plate. Plates were sealed and incubated overnight at 4° C. with shaking. The next day, wells were washed four times with 1× Wash Buffer; plates were taped on lint-free paper after the final wash prior to adding Add Detection Antibody (green, 100 μL/well) to each well and incubating for 1 hr at 37° C. After incubation, wells were washed as described. HRP-Linked secondary antibody (red, 100 μL/well) was added to each well and incubated for 30 min at 37° C. After incubation, the wells were washed as described. TMB Substrate (100 μL/well) was added to each well and the plate incubated for 10 min at 37° C. or 30 min at rt maximum. Stop Solution (100 μL/well) was added to each well at the end of the incubation and plates were shaken gently for a few seconds. […] Data were analyzed using a four-parameter fit in Microsoft Excel.

[3] = target: T3, EGFR L858R (NCI-H3255) (Homo sapiens, UniProt P00533, L858R); assay: pEGFR Y1068 ELISA assay, NCI-H3255 cells
T3 construct: detects endogenous levels of phospho-EGF Receptor (Tyr1068) protein; host or cells: NCI-H3255
Procedure: as §1, §2

[4] = target: T4, EGFR del/T790M (PC9-DRH) (Homo sapiens, UniProt P00533, DEL746-750/T790M); assay: pEGFR Y1068 ELISA assay, PC9-DRH cells; conditions: inhibition of phosphorylation of EGFR at Tyr1068; PC9-DRH cells (dacomitinib resistant); 2 hr compound incubation
T4 construct: detects endogenous levels of phospho-EGF Receptor (Tyr1068) protein; endogenous in cells; host or cells: PC9-DRH (dacomitinib-resistant derivative of PC9, generated in house)
T4 sequence (P00533 with tags, fused parts or gaps DEL746-750/T790M): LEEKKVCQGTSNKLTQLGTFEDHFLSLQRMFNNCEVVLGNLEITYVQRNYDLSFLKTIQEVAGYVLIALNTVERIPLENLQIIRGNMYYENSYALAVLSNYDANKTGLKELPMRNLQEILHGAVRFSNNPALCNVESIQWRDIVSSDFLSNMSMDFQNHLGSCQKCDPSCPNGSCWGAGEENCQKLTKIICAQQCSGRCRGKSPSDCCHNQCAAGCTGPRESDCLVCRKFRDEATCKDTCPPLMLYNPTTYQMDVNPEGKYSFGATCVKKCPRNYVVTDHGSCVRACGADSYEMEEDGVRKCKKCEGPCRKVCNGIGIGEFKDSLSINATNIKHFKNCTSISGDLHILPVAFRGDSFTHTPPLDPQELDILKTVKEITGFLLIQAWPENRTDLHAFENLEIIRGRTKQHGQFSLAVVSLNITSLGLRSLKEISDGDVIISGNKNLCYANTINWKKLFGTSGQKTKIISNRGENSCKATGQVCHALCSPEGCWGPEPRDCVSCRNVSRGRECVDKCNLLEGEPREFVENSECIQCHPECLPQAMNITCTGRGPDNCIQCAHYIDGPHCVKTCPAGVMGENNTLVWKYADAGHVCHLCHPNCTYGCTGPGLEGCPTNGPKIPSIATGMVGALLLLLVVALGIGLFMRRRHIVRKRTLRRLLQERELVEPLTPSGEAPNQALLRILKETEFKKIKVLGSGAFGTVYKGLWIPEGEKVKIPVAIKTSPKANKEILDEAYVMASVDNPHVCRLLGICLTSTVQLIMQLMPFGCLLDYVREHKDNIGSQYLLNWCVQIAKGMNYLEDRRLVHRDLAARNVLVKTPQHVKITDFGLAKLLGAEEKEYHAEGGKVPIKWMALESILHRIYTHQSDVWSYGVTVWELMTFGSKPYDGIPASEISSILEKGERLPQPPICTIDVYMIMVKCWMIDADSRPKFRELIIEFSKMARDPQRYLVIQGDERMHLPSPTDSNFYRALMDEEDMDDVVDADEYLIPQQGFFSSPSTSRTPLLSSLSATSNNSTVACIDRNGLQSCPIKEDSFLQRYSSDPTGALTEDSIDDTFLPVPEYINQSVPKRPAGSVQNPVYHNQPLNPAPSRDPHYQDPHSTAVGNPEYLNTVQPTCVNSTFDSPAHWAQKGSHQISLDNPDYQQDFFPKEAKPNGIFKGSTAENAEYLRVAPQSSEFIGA
Procedure: as §1, §2

[5] = target: T5, EGFR wildtype, endogenous (A549) (Homo sapiens, UniProt P00533); assay: pEGFR Y1068 ELISA assay, A549 cells; conditions: inhibition of phosphorylation of EGFR at Tyr1068; A549 NSCLC cells; 2 hr compound incubation, then stimulated 10 min with EGF (40 ng/mL)
T5 construct: A549 (EGFR wildtype, endogenous); host or cells: A549 (stimulated with EGF)
T5 sequence (P00533 25-1210): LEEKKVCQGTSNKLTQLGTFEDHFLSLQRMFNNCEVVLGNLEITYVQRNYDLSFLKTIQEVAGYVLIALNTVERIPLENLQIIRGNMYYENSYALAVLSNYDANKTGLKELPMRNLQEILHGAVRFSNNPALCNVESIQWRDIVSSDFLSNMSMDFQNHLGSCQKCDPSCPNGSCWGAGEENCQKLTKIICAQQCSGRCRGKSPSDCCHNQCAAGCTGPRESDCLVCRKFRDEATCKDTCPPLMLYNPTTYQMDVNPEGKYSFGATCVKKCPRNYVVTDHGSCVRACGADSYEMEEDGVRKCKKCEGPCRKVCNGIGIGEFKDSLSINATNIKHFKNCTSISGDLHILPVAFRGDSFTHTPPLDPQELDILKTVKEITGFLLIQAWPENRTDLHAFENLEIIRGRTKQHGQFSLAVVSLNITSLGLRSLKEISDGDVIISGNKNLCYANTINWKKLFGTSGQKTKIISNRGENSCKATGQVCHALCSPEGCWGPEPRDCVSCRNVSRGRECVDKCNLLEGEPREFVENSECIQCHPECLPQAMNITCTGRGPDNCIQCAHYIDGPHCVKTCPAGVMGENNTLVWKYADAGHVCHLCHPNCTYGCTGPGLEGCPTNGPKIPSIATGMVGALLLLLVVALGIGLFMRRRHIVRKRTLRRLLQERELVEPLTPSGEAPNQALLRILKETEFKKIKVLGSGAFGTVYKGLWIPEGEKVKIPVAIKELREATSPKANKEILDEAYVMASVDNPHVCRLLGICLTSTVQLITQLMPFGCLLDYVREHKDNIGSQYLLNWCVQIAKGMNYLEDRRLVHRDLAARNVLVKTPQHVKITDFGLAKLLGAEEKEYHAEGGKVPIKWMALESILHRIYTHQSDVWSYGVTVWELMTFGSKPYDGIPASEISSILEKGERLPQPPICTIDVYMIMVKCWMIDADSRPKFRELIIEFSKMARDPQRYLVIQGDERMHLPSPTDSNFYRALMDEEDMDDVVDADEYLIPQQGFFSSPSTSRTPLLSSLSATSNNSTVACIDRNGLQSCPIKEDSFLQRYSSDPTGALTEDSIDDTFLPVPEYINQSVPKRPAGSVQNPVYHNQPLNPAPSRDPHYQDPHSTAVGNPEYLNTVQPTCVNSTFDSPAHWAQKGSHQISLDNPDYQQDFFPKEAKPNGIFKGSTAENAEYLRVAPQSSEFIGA
Procedure: Phosphorylation of EGFR at Y1068 was measured by PathScan® Phospho-EGF Receptor (Try1068) Sandwich ELISA kit (#7240, Cell Signaling Technology®, Danvers, Mass.). The PathScan® Phospho-EGF Receptor (Tyr1068) Sandwich ELISA Kit is a solid phase sandwich enzyme-linked immunosorbent assay (ELISA) that detects endogenous levels of phospho-EGF Receptor (Tyr1068) protein. […] All cells were cultured according to ATCC recommendations. A549, NCI-H1975, PC9, and NCI-H3255 cells were grown in RPMI media (Invitrogen, Carlsbad, Calif.) supplemented with 10% FBS (Sigma, St Louis, Mo.), and with 1% Penn/Strep (Invitrogen). PC9-DRH cells were grown in RPMI with 10% FBS and 1 μM dacomitinib.
Cells were plated at 40,000/well in complete culture media (50 μL/well) on the bottom of clear tissue culture treated microtiter plates (#3595, Corning Inc, Corning, N.Y.) and allowed to adhere overnight at 37° C., 5% CO2. The following day, compound dilution plates were prepared in 96 well clear V-bottom 0.5 mL polypropylene block plates (#3956, Corning, Inc). Each compound was prepared as a DMSO stock solution (10 mM). Compounds were tested in duplicate on each plate, with an 11-point serial dilution curve (1:3 dilution). Compound treatment (50 μL) was added from the compound dilution plate to the cell plate. […] Plates were then incubated for 2 hr at 37° C., 5% CO2. For A549 (EGFR wildtype) assay, cells were plated in full-serum (10%) media for 24 hr prior to compound treatment; cells were treated in full serum media as described and then stimulated for 10 min with EGF (40 ng/mL/starvation media, Invitrogen). Immediately prior to the end of the incubation, ice-cold lysis buffer was prepared (1× Cell Lysis Buffer (#9803, Cell Signaling Technology), 1 mM sodium orthovanadate (Na3VO4, #96508, Sigma), 1 mM phenylmethanesulfonyl fluoride (PMSF, 52332, CalBiochem/EMD Chemicals), complete Mini EDTA-free Protease Inhibitor Cocktail Tablet (1 tablet/10 mL, #11836170001, Roche, Indianapolis, Ind.), and PhosSTOP Phosphatase Inhibitor Cocktail Tablet (1 tablet/10 mL, #04906837001, Roche) in pure water. At the end of 2 hr, media was flicked off and cells were washed once with ice-cold 1 mM Na3VO4 in PBS (100 μL/well, Invitrogen). The wash was then flicked off and ice-cold lysis buffer was added to the cells (50 μL/well). The plate was shaken for 20-30 min at 4° C. to completely lyse the cells. Sample diluent (50 μL/well) was added to the ELISA plate, and the lysate (50 μL) was diluted into the sample diluent in each well of the ELISA plate. Plates were sealed and incubated overnight at 4° C. with shaking. The next day, wells were washed four times with 1× Wash Buffer; plates were taped on lint-free paper after the final wash prior to adding Add Detection Antibody (green, 100 μL/well) to each well and incubating for 1 hr at 37° C. After incubation, wells were washed as described. HRP-Linked secondary antibody (red, 100 μL/well) was added to each well and incubated for 30 min at 37° C. After incubation, the wells were washed as described. TMB Substrate (100 μL/well) was added to each well and the plate incubated for 10 min at 37° C. or 30 min at rt maximum. Stop Solution (100 μL/well) was added to each well at the end of the incubation and plates were shaken gently for a few seconds. Absorbance was read at 450 nm within 30 min after addition of Stop Solution on a PerkinElmer EnVision Excite Multilabel Reader Method for Absorbance or on a Molecular Devices SpectraMax^384 Reader for absorbance. Data were analyzed using a four-parameter fit in Microsoft Excel.

Row | pIC50 [1] | pIC50 [2] | pIC50 [3] | pIC50 [4] | pIC50 [5] | pIC50 ([3]; inhibition of phosphorylation of EGFR at Tyr1068, NCI-H3255 NSCLC cells, 2 hr compound incubation) | SMILES
1 | 7.72 | 7.68 | 7.82 | 8.10 | 6.24 | – | C=CC(=O)N[C@@H]1CN(c2nc(Nc3cn(C4CCN(C)C4)nc3C)c3ncn(C)c3n2)C[C@H]1F (stereo partly drawn) [Example 81, N-((3R,4R)-4-fluoro-1-(9-methyl-6-((3-methyl-1-(1-methylpyrrolidin-3-yl)-1H -pyrazol-4-yl)amino)-9H-purin-2-yl)pyrrolidin-3-yl)acrylamide]
2 | 7.82 | 7.35 | 8.05 | 8.52 | 5.92 | – | C=CC(=O)N[C@@H]1CN(c2nc(Nc3cn(CC(C)O)nc3OC)c3ncn(C(C)C)c3n2)C[C@H]1F (stereo partly drawn) [Example 84, N-((3R,4R)-4-fluoro-1-(6-((1-(2-hydroxypropyl)-3-methoxy-1H-pyrazol-4-yl)amino)-9-isopropyl-9H-purin-2-yl)pyrrolidin-3-yl)acrylamide]
3 | 7.77 | 6.98 | 7.47 | 7.82 | 6.19 | – | C=CC(=O)N[C@@H]1CN(c2nc(Nc3cnn([C@@H]4CCN(C)C4)c3C)c3ncn(C(C)C)c3n2)C[C@H]1F [Example 85, N-((3R,4R)-4-fluoro-1-(9-isopropyl-6-((5-methyl-1-((R)-1-methylpyrrolidin-3-yl) -1H-pyrazol-4-yl)amino)-9H-purin-2-yl)pyrrolidin-3-yl)acrylamide]
4 | 8.22 | 8.22 | – | 9.00 | 6.71 | 8.70 | C=CC(=O)N[C@@H]1CN(c2nc(Nc3cn(CC)nc3OC)c3ncn(C)c3n2)C[C@H]1F [Example 88, N-((3R,4R)-1-(6-((1-ethyl-3-methoxy-1H-pyrazol-4-yl)amino)-9-methyl-9H-purin-2-yl)-4-fluoropyrrolidin-3-yl)acrylamide]
